Reference: patent publication US20180344805A1, “GLYCOLIPID COMPOUNDS AND THEIR USES IN THE TREATMENT OF TUMOURS” (Agalimmune Limited (GB/GB), priority 2015, published 2018)

Tests used:
CHO-K1 cells [1] = assay: Complement Dependent Cytotoxicity Assay; assay type: cell-based; settings: for Lysis of glycolipid-labelled cells by human serum complement: CHO-K1 cells labelled with glycolipid, 50% human serum, FIGS. 3 to 5; for EC50: Cricetulus griseus, CHO-K1 cells labelled with glycolipid 1 hour at 37° C., then 50% human serum complement 1 hour at 37° C., cell viability by CellTiter-Glo
Procedure: CHO-K1 cells were harvested from cell culture flasks, counted and resuspended in PBS to a cell density of 5×10^6 cells/ml. Each glycolipid was serially diluted in PBS across nine 1.5 ml centrifuge tubes so that the final volume in the tubes was 100 μl. To each tube, 100 μl of the CHO-K1 cell suspension was added and the tubes incubated for 1 hour at 37° C. After an hour the tubes were placed on ice for 5 minutes and then the cells washed 3 times with 500 μl of ice-cold PBS. The cells were resuspended in a final volume of 250 μl of ice-cold PBS and 50 μl aliquots were transferred to duplicate wells of a 96 well plate. To each well containing cells 50 μl of 100% normal or heat-inactivated (30 minutes at 56° C.) human serum complement (Innovative Research) was added so that the final concentration of human serum was 50%. The plate was incubated at 37° C. for 1 hour, after which cell viability was measured using CellTiter-Glo reagent (Promega) read on a EnVision plate reader (Perkin Elmer).

CHO-K1 cells [2] = assay: Anti-Gal Recruitment Assay; assay type: cell-based; settings: CHO-K1 cells incubated with glycolipid 1 hour at 37° C.; monoclonal anti-Gal IgG1, FITC-conjugated anti-human IgG, flow cytometry; FIGS. 1 and 2
Procedure: CHO-K1 cells were harvested from cell culture flasks, counted and resuspended in PBS to a cell density of 5×10^6 cells/ml. Each glycolipid was serially diluted in PBS across nine 1.5 ml centrifuge tubes so that the final volume in the tubes was 100 μl. To each tube, 100 μl of the CHO-K1 cell suspension was added and the tubes incubated for 1 hour at 37° C. After an hour the cells were pelleted by centrifugation at 400 g for 3 minutes and resuspended in 500 μl of PBS+0.1% BSA. This was repeated twice more to wash the cells. After the final wash the cells were resuspended in 100 μl of monoclonal anti-Gal IgG1 diluted 1:8 in PBS+0.1% BSA. The tubes were incubated on ice for 30 minutes. After 30 minutes the cells were pelleted by centrifugation at 400 g for 3 minutes and resuspended in 500 μl of PBS+0.1% BSA. This was repeated twice more to wash the cells. After the final wash the cells were resuspended in 100 μl of FITC-conjugated mouse anti-human IgG (Biolegend) and the tubes incubated on ice for 30 minutes. After 30 minutes the cells were pelleted by centrifugation at 400 g for 3 minutes and resuspended in 500 μl of PBS+0.1% BSA. This was repeated twice more to wash the cells. […] After 5 minutes incubation on ice the cells were analysed on a Cytomics FC500 flow cytometer (Beckman Coulter). […]

Compound: CCCCCCCC/C=C\CCCCCCCC(=O)OCC(COP(=O)(O)OCCNC(=O)CCCCC(=O)NCCCO[C@@H]1OC(CO)[C@@H](O[C@@H]2OC(CO)[C@H](O)C(O[C@H]3OC(CO)[C@H](O)C(O)C3NC(C)=O)C2O)C(O)C1NC(C)=O)OC(=O)CCCCCCC/C=C\CCCCCCCC (some centres unmarked) [Example 3, GalNAcα1-3Galβ1-4GlcNAc-Ad-DOPE]
- Lysis of glycolipid-labelled cells by human serum complement (CHO-K1 cells [1]): are lysed by human serum complement
- EC50 (CHO-K1 cells [1]): 86.8 µM

Compound: CCCCCCCC/C=C\CCCCCCCC(=O)OCC(COP(=O)(O)OCCNC(=O)CCCCC(=O)NCC(=O)NCC(=O)N(CC(=O)O)CC(=O)NCC(=O)NCC(=O)N(CC(=O)O)CC(=O)NCCNC(=O)CN(CC(=O)O)C(=O)CNC(=O)CNC(=O)CN(CC(=O)O)C(=O)CNC(=O)CNC(=O)CCCCC(=O)NCCCO[C@@H]1OC(CO)[C@@H](O[C@@H]2OC(CO)[C@H](O)[C@H](O[C@H]3OC(CO)[C@H](O)[C@H](O)C3O)C2O)[C@H](O)C1NC(C)=O)OC(=O)CCCCCCC/C=C\CCCCCCCC (some centres unmarked) [Example 1, Galili-CMG2-DOPE]
- Lysis of glycolipid-labelled cells by human serum complement (CHO-K1 cells [1]): are lysed by human serum complement
- EC50 (CHO-K1 cells [1]): 7.02 µM
- Membrane incorporation and recruitment of anti-Gal antibody (CHO-K1 cells [2]): incorporates into the plasma membrane of CHO-K1 cells and presents the alpha-Gal epitope for recognition by anti-Gal antibodies
